Reference: US20260258036A1, “INHIBITORS OF HUMAN ALDOSTERONE SYNTHASE (CYP11B2)” («TARGET MEDICALS» LIMITED LIABILITY COMPANY, priority 2022, published 2026)

What follows are compounds tested against T1, recombinant CYP11B2 (Homo sapiens, UniProt P19099) (assay: Inhibition of CYP11B2 activity in a reconstructed enzyme system (HPLC with UV detector)). Conditions: compounds 1_xx; test compound final concentration ≤2 μM; corticosterone substrate; 30 minutes at 37° C.; read-out: Level of CYP11B2 activity inhibition.
T1 sequence (P19099 25-503): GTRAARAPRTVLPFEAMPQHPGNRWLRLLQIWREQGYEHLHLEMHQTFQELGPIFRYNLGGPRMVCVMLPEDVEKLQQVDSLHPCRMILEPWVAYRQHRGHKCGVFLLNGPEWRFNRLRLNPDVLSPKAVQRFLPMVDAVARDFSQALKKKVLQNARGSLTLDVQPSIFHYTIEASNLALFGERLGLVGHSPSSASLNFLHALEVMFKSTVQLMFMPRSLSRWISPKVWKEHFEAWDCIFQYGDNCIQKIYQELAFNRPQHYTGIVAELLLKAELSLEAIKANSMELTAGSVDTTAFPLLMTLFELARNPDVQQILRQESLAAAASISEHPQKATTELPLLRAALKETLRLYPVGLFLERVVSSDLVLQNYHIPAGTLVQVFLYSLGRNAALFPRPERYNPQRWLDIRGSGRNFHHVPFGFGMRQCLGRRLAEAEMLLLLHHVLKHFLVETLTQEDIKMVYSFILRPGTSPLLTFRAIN
Format: biochemical
Description: The authors of the present invention investigated the activity of the compounds according to the invention as inhibitors of CYP11 B2 when analyzed in a reconstructed system containing 0.5 μm recombinant CYP1 1B2, 0.3 μm human adrenodoxin reductase, 2 μm human adrenodoxin, 100 μm corticosterone as a control reaction to detect the formation of a product with using an HPLC system with a UV detector. The test compound is added to the reaction mixture to a final concentration of ≤2 μM. The concentrated protein mixture was diluted with buffer to a final volume of 0.5 ml, pre-incubated for 10 min at 37° C., followed by the addition of the substrate. Reactions are initiated by adding NADPH (nicotinamide adenine dinucleotide phosphate) to a final concentration of 0.25 mM with a regenerating system (glucose-6-phosphate and glucose-6-phosphate dehydrogenase) in 25 mM potassium phosphate buffer, pH 7.4, containing 0.1 mM DTT (dithiothreitol), 0.1% Tween-20.4 mM MgCl2 and incubated at 37° C. After 30 minutes of incubation, the reaction is stopped by adding 5 ml of dichloromethane. The organic phase is isolated by centrifugation, evaporation, dissolution in ethanol and transferred to a vial for HPLC studies. A C18 Luna 100 Å 250×4, 6 mm column was used on an Agilent Technologies 1200 series instrument (USA) with ethanol as the mobile phase.
Activity (a) is calculated as the amount of product in nmol per minute per 1 nmol of CYP.
where k is the correction factor (k=1 is used as the molar extinction coefficients of steroid substrates and products similar at a detection wavelength of 254 nm), As is the peak area of the substrate, cs is the concentration of the substrate, Ap is the peak area of the product, ce is the concentration of CYP (cytochrome P450), t is the reaction time.
The level of inhibition of CYP11 B2 activity is expressed as a percentage, where 0% is defined as no inhibition in reactions without test compound and 100% is absolute inhibition by test compound.
`COc1c(C)cc(S(=O)(=O)n2ccc3c(-c4ccc(C)cn4)cncc32)cc1C` [Compound 1_01, 1-(4-methoxy-3,5-dimethylphenyl)sulfonyl-4-(5-methyl-2-pyridyl)pyrrolo[2,3-c]pyridine] was tested, and the inhibition at 2 µM was 50 to 100%. Compound `COc1c(C)cc(S(=O)(=O)n2ccc3c(-c4cnc(C)cn4)cncc32)cc1C` [Compound 1_02, 1-((4-methoxy-3,5-dimethylphenyl)sulfonyl)-4-(5-methylpyrazin-2-yl)-1H-pyrrolo[2,3-c]pyridine] has an inhibition at 2 µM of 50 to 100%. With `COc1c(C)cc(S(=O)(=O)n2ccc3c(-c4ncc(C)cn4)cncc32)cc1C` [Compound 1_03, 1-((4-methoxy-3,5-dimethylphenyl)sulfonyl)-4-(5-methylpyrimidin-2-yl)-1H-pyrrolo[2,3-c]pyridine] the inhibition at 2 µM was 50 to 100%. `COc1c(C)cc(S(=O)(=O)n2ccc3c(-c4ccc(C)nn4)cncc32)cc1C` [Compound 1_04, 1-(4-methoxy-3,5-dimethylphenyl)sulfonyl-4-(6-methylpyridazin-3-yl)pyrrolo[2,3-c]pyridine] gave an inhibition at 2 µM of 50 to 100%. Work on `COc1c(C)cc(S(=O)(=O)n2ccc3c(-c4ccc(S(C)(=O)=O)cn4)cncc32)cc1C` [Compound 1_05, 1-(4-methoxy-3,5-dimethylphenyl)sulfonyl-4-(5-methylsulfonyl-2-pyridyl)pyrrolo[2,3-c]pyridine] yielded an inhibition at 2 µM of 20 to 100%. `CC(C)Oc1c(F)cc(S(=O)(=O)n2ccc3c(-c4ccccn4)cncc32)cc1F` [Compound 1_06, 1-((3,5-difluoro-4-isopropoxyphenyl)sulfonyl)-4-(pyridin-2-yl)-1H-pyrrolo[2,3-c]pyridine] was tested, and the inhibition at 2 µM was 50 to 100%. With `O=S(=O)(c1cc(F)c(OCC2CC2)c(F)c1)n1ccc2c(-c3ccccn3)cncc21` [Compound 1_07, 1-((4-(cyclopropylmethoxy)-3,5-difluorophenyl)sulfonyl)-4-(pyridin-2-yl)-1H-pyrrolo[2,3-c]pyridine] the inhibition at 2 µM was 50 to 100%. Work on `O=S(=O)(c1cc(F)c(OCC(F)F)c(F)c1)n1ccc2c(-c3ccccn3)cncc21` [Compound 1_08, 1-((4-(2,2-difluoroethoxy)-3,5-difluorophenyl)sulfonyl)-4-(pyridin-2-yl)-1H-pyrrolo[2,3-c]pyridine] yielded an inhibition at 2 µM of 50 to 100%. With `CN(C)c1c(F)cc(S(=O)(=O)n2ccc3c(-c4ccccn4)cncc32)cc1F` [Compound 1_09, 2,6-difluoro-N,N-dimethyl-4-((4-(pyridin-2-yl)-1H-pyrrolo[2,3-c]pyridin-1-yl)sulfonyl)aniline] the inhibition at 2 µM was 50 to 100%. `O=S(=O)(c1cc(F)c(N2CCOCC2)c(F)c1)n1ccc2c(-c3ccccn3)cncc21` [Compound 1_10, 4-(2,6-difluoro-4-((4-(pyridin-2-yl)-1H-pyrrolo[2,3-c]pyridin-1-yl)sulfonyl)phenyl)morpholine] showed an inhibition at 2 µM of 50 to 100%. Compound `Nc1c(F)cc(S(=O)(=O)n2ccc3c(-c4ccccn4)cncc32)cc1F` [Compound 1_11, 2,6-difluoro-4-((4-(pyridin-2-yl)-1H-pyrrolo[2,3-c]pyridin-1-yl)sulfonyl)aniline] has an inhibition at 2 µM of 50 to 100%. `CN1CCN(c2c(F)cc(S(=O)(=O)n3ccc4c(-c5ccccn5)cncc43)cc2F)CC1` [Compound 1_12, 1-((3,5-difluoro-4-(4-methylpiperazin-1-yl)phenyl)sulfonyl)-4-(pyridin-2-yl)-1H-pyrrolo[2,3-c]pyridine] gave an inhibition at 2 µM of 50 to 100%. In the case of `O=S(=O)(c1cc(F)c(NC2CC2)c(F)c1)n1ccc2c(-c3ccccn3)cncc21` [Compound 1_13, N-cyclopropyl-2,6-difluoro-4-((4-(pyridin-2-yl)-1H-pyrrolo[2,3-c]pyridin-1-yl)sulfonyl)aniline], the inhibition at 2 µM is reported as 50 to 100%. `CN(c1c(F)cc(S(=O)(=O)n2ccc3c(-c4ccccn4)cncc32)cc1F)C1CCC1` [Compound 1_14, N-cyclobutyl-2,6-difluoro-N-methyl-4-((4-(pyridin-2-yl)-1H-pyrrolo[2,3-c]pyridin-1-yl)sulfonyl)aniline] showed an inhibition at 2 µM of 50 to 100%. For `CN(C)c1c(F)cc(S(=O)(=O)N2CCc3c(-c4ccccn4)cncc32)cc1F` [Compound 1_15, 2,6-difluoro-N,N-dimethyl-4-((4-(pyridin-2-yl)-2,3-dihydro-1H-pyrrolo[2,3-c]pyridin-1-yl)sulfonyl)aniline], the inhibition at 2 µM was 20 to 100%. `O=S(=O)(c1cc(F)c(O)c(F)c1)N1CCc2c(-c3ccccn3)cncc21` [Compound 1_16, 2,6-difluoro-4-((4-(pyridin-2-yl)-2,3-dehydro-H-pyrrolo[2,3-c]pyridin-1-yl)sulfonyl)phenol] showed an inhibition at 2 µM of 50 to 100%. Compound `CN1CCN(c2c(F)cc(S(=O)(=O)N3CCc4c(-c5ccccn5)cncc43)cc2F)CC1` [Compound 1_17, 1-((3,5-difluoro-4-(4-methylpiperazin-1-yl)phenyl)sulfonyl)-4-(pyridin-2-yl)-2,3-dihydro-1H-pyrrolo[2,3-c]pyridine] has an inhibition at 2 µM of 50 to 100%. With `COc1c(F)cc(S(=O)(=O)n2ccc3c(-c4ccccn4)cncc32)cc1F` [Compound 1_18, 1-((3,5-difluoro-4-methoxyphenyl)sulfonyl)-4-(pyridin-2-yl)-1H-pyrrolo[2,3-c]pyridine] the inhibition at 2 µM was 50 to 100%. Work on `CC1CN(c2c(F)cc(S(=O)(=O)n3ccc4c(-c5ccccn5)cncc43)cc2F)C1` [Compound 1_19, 1-((3,5-difluoro-4-(3-methylazetidin-1-yl)phenyl)sulfonyl)-4-(pyridin-2-yl)-1H-pyrrolo[2,3-c]pyridine] yielded an inhibition at 2 µM of 50 to 100%. `Cc1csc(N(C)c2c(F)cc(S(=O)(=O)n3ccc4c(-c5ccccn5)cncc43)cc2F)n1` [Compound 1_20, N-(2,6-difluoro-4-((4-(pyridin-2-yl)-1H-pyrrolo[2,3-c]pyridin-1-yl)sulfonyl)phenyl)-N,4-dimethylthiazol-2-amine] showed an inhibition at 2 µM of 50 to 100%. With `CN1CCC(Nc2c(F)cc(S(=O)(=O)n3ccc4c(-c5ccccn5)cncc43)cc2F)CC1` [Compound 1_21, N-(2,6-difluoro-4-((4-(pyridin-2-yl)-1H-pyrrolo[2,3-c]pyridin-1-yl)sulfonyl)phenyl)-1-methylpiperidin-4-amine] the inhibition at 2 µM was 50 to 100%. For `CN(C)CCNc1c(F)cc(S(=O)(=O)n2ccc3c(-c4ccccn4)cncc32)cc1F` [Compound 1_22, N1-(2,6-difluoro-4-((4-(pyridin-2-yl)-1H-pyrrolo[2,3-c]pyridin-1-yl)sulfonyl)phenyl)-N2,N2-dimethylethane-1,2-diamine], the inhibition at 2 µM was 50 to 100%. `O=S(=O)(c1cc(F)c(N2CCSCC2)c(F)c1)n1ccc2c(-c3ccccn3)cncc21` [Compound 1_23, 4-(2,6-difluoro-4-((4-(pyridin-2-yl)-1H-pyrrolo[2,3-c]pyridin-1-yl)sulfonyl)phenyl)thiomorpholine] showed an inhibition at 2 µM of 50 to 100%. For `CN1CC2CN(c3c(F)cc(S(=O)(=O)n4ccc5c(-c6ccccn6)cncc54)cc3F)CC2C1` (stereo not drawn) [Compound 1_24, 1-((3,5-difluoro-4-(5-methylhexahydropyrrolo[3,4-c]pyrrol-2(1H)-yl)phenyl)sulfonyl)-4-(pyridin-2-yl)-1H-pyrrolo [2,3-s]pyridine], the inhibition at 2 µM was 20 to 100%. For `CN1CCC2CN(c3c(F)cc(S(=O)(=O)n4ccc5c(-c6ccccn6)cncc54)cc3F)CC2C1` (stereo not drawn) [Compound 1_25, 1-((3,5-difluoro-4-(5-methyloctahydro-2H-pyrrolo[3,4-c]pyridin-2-yl)phenyl)sulfonyl)-4-(pyridin-2-yl)-1H-pyrrolo[2,3-c]pyridine], the inhibition at 2 µM was 50 to 100%. `O=S(=O)(c1cc(F)c(N2CCC3(CCNC3)C2)c(F)c1)n1ccc2c(-c3ccccn3)cncc21` (stereo not drawn) [Compound 1_26, 2-(2,6-difluoro-4-((4-(pyridin-2-yl)-1H-pyrrolo[2,3-c]pyridin-1-yl)sulfonyl)phenyl)-2,7-diazaspiro[4.4]nonane] showed an inhibition at 2 µM of 50 to 100%. `CN1CCN(c2c(F)cc(S(=O)(=O)n3ccc4c(-c5nc(C#N)co5)cncc43)cc2F)CC1` [Compound 1_27, 2-(1-((3,5-difluoro-4-(4-methylpiperazin-1-yl)phenyl)sulfonyl)-1H-pyrrolo[2,3-c]pyridin-4-yl)oxazol-4-carbonitrile] gave an inhibition at 2 µM of 50 to 100%.
